Activity calls are given as the source filed them.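 How the source made its calls: active means compounds giving half or more protection of infected cells from virus-caused growth loss, again on retest; inactive means the rest.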 Where a SMILES comes first, the peptide text is derived from it. The star is where a group is joined. Cbz = O=C(OCc1ccccc1)*; NHNH2 = NN*
System: CEM cells HIV-1 protection, formazan growth assay
Assay: NCI AIDS Antiviral Assay
Conditions: for IC50: measured here: growth of uninfected CEM cells
Procedure, shortened: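 Steps: treat uninfected and HIV-1-infected human CEM cells at five drug levels; quantify growth by soluble formazan; retest any compound reaching 50% protection; classify actives from the retest.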

| Compound | EC50 [µM] | IC50 [µM] | outcome |
| --- | --- | --- | --- |
| COc1cccc(N2C(=O)C3c4[nH]c5ccccc5c4C4c5ccccc5CCC4C3C2=O)c1 (stereo not drawn) | > 100 | > 100 | – |
| CN(/N=C/c1cccc2cccnc12)c1ccccc1 | – | – | inactive |
| N#CC1(C2SCCS2=O)C2=C(C(=O)c3ccccc3C2=O)N2CCCC21 (stereo not drawn) | – | – | inactive |
| O=[N+]([O-])c1ccc(-c2nc3c(o2)CCC3)cc1 | > 200 | 195 | – |
| O=C(O)c1ccccc1C(=O)NC(Cc1cccc(NP(=O)(N2CC2)N2CC2)c1)C(=O)O (stereo not drawn) | 27.5 | > 200 | – |
| CCCCN(CCCC)CC(C(=O)Nc1ccccc1)/C(C)=N\NC(=O)c1ccncc1 (stereo not drawn) | > 51.3 | 30.2 | – |
| O=C1NNC(=O)c2ccccc2SSc2ccccc2C(=O)NNC(=O)c2ccccc2SSc2ccccc21 | 5.01 | 25.1 | – |
| NCCCNCCCCNCCCNCc1c2ccccc2c(CNCCCNCCCCNCCCN)c2ccccc12 | > 1820 | 3.8 | – |
| Cc1nc(C)c(C(=O)NNC(=O)C[N+](C)(C)C)cc1C(=O)NNC(=O)C[N+](C)(C)C | > 200 | > 200 | – |
| CC1(C)c2ccccc2-c2nc3ccccc3cc2C1N1CCOCC1 (stereo not drawn) | > 200 | 41.7 | – |
| CN1N(c2ccccc2)C(=O)C2=NC=C(C(=O)c3ccc(Cl)cc3)C(=N)C21C (stereo not drawn) | > 200 | > 200 | – |
| O=C1NC2c3c(I)sc(I)c3C(O)C2O1 (stereo not drawn) | > 200 | 141 | – |
| CCC(=O)N(O)C(C)(C)C | > 1740 | > 1740 | – |
| CCOC(=O)c1ccc(N=[N+]([O-])c2ccc(C(=O)OCC)cc2)cc1 | > 100 | > 100 | – |
| CC(=O)NC(CCC(=O)c1ccc(Cl)cc1)(C(=O)O)C(=O)O | > 200 | > 200 | – |
| COC(=O)C1(Cc2ccc3c(c2)CCC3)Cc2ccc3c(c2C1=O)CCC3 (stereo not drawn) | > 20 | 9.55 | – |
| C/C(=N\NS(=O)(=O)c1ccc([N+](=O)[O-])cc1)c1ccc[n+]([O-])n1 | – | – | inactive |
| O=c1c2c([nH]c3ccccc13)CSC2 | > 67.6 | > 67.6 | – |
| Cn1c(N=[N+]=[N-])cc(=O)n(C)c1=O | – | – | inactive |
| CCCCCCCCC/C=C/C=C/C(=O)NCC(=O)NC1C(O)C(O)C(Nc2ncnc3nc[nH]c23)OC1C(O)CO (stereo not drawn) | > 43.7 | 0.158 | – |
| OCc1cccnc1 | > 200 | > 200 | – |
| CC(=O)NC1C(OCc2ccccc2)OC(CO)C(O)C1OC(C)C(=O)NC(C)C(=O)N[C@H](CCC(=O)OCCNCCCNc1ccc([N+](=O)[O-])c2[nH]c3ccccc3c(=O)c12)C(N)=O (stereo partly drawn) | > 200 | 60.3 | – |

| Compound | EC50 [µM] | IC50 [µM] | outcome |
| --- | --- | --- | --- |
| C=C(Br)CNC(=O)NCCN1CCOCC1 | > 200 | > 200 | – |
| O=C(c1ccccc1)c1cn(/N=C\c2ccccc2)c(=O)nc1-c1ccccc1 | – | – | inactive |
| O=C(NCc1ccccc1O)c1ccc(O)cc1O | > 200 | 110 | – |
| Cc1cc(=O)oc2c1ccc1occc(=O)c12 | > 100 | 56.2 | – |
| O=c1n(CC2CO2)c2ccccc2n1CC1CS1 (stereo not drawn) | > 692 | 12.9 | – |
| CO/C(CO)=C1\CC2(OC1=O)[C@@H]1O[C@@H]1C1(O)[C@H]3C(=O)O[C@@H]([C@@H](OC)C21C)[C@@]3(O)C(C)C (stereo partly drawn) | > 407 | > 407 | – |
| O=C1C2c3[nH]c4ccccc4c3C3CCCCCC3C2C(=O)N1c1ccccc1 (stereo not drawn) | – | – | inactive |
| O=C(N=Nc1ccc(Br)cc1)NNc1ccc(Br)cc1 | > 200 | 12.9 | – |
| N#CNC(N)=NCCO | > 692 | > 692 | – |
| O=C1C(=Cc2c[nH]c3ccccc23)C(=O)c2ccccc21 | > 200 | 191 | – |
| O=C(O)Cn1[se]c2ccccc2c1=O | 46.8 | 120 | – |
| O=C(Nc1ccc(/C=C/c2ccc(NC(=O)c3ccc4cccnc4c3O)cc2S(=O)(=O)O)c(S(=O)(=O)O)c1)c1ccc2cccnc2c1O | > 100 | 60.3 | – |
| CC1=NNC(N)=N/C1=C\C(Sc1ccc(Cl)cc1)c1ccc([N+](=O)[O-])cc1 (stereo not drawn) | > 117 | 30.9 | – |
| COC(=O)C1C(O)CCC2CN3CCc4c([nH]c5ccccc45)C3CC21 (stereo not drawn) | > 200 | 70.8 | – |
| CC1(C)CC2=C(SC3C=CC=CC3N2)C(=O)C1C(=O)C(N)=O (stereo not drawn) | > 58.9 | > 58.9 | – |
| O=C(CCCc1cccc2[nH]c3c(c12)CN(Cc1ccccc1)CC3)c1ccc(F)cc1 | > 200 | 14.5 | – |
| C/C(=N\NC(=O)c1ccncc1)c1cccc(C(F)(F)F)c1 | > 85.1 | > 85.1 | – |
| Nc1nc2nsnc2nc1N | > 240 | > 240 | – |
| Cc1ccc(N=Nc2c(C)nn(C(=O)CC(=O)Nc3ccc(Cl)cc3)c2C)cc1C | > 200 | > 200 | – |
| Nc1nnnn1-c1ccccc1 | > 200 | > 200 | – |
| Cc1ccc(S(=O)(=O)Nn2c3c(cc(C#N)c2=O)CCCCC3)cc1 | > 200 | > 200 | – |
| Cc1ccc(C2=Nc3ccc(F)cc3SC(C(=O)O)C2)cc1 (stereo not drawn) | – | – | inactive |

| Compound | EC50 [µM] | IC50 [µM] | outcome |
| --- | --- | --- | --- |
| CC(=O)NNc1nc(C)c(C(=O)/C=C/c2cccc([N+](=O)[O-])c2)s1 | 70.8 | 75.9 | – |
| CC(C)C(NC(=O)C1CCCN1C(=O)OCc1ccccc1)C(=O)NN (stereo not drawn) (Cbz-Pro-Val-NHNH2; configuration not given here) | > 692 | 407 | – |
| Cc1ccc(S(=O)(=O)OCC23CCC(CC2)C2CC23)cc1 (stereo not drawn) | > 100 | 70.8 | – |
| Cc1nnc2c3c(-c4ccccc4)c(-c4ccccc4)oc3nc(N(C)C)n12 | – | – | inactive |
| CC(C)n1cc(C(C)(C)C)nc1SSc1nc(C(C)(C)C)cn1C(C)C | > 200 | > 200 | – |
| COC(=O)CCc1cccnc1/C=N/O | > 1200 | 126 | – |
| COC1=CC2(c3ccccc3)C(=CC1=O)CCN2C(=O)c1ccccc1 (stereo not drawn) | – | – | inactive |
| C=C(C)[C@@H]1CC[C@]2(C)CC[C@@]3(C)[C@]4(C)CC[C@H]5C(C)(C)[C@@H](OC(=O)CCC(=O)O)CC[C@]5(C)[C@H]4CC[C@]3(C)[C@@H]12 | 44.7 | > 100 | – |
| CC1(C)Cc2ccccc2C(C)(Cl)C(=O)N1 (stereo not drawn) | 191 | > 200 | – |
| OC1=C(O)c2ccccc21 | > 1860 | > 1860 | – |
| CCN(CC)/N=C\c1c2ccccc2cc2ccccc12 | > 200 | 85.1 | – |
| CN=C(N)c1ccc(N=C(N)c2cccc(C(N)=Nc3ccc(C(N)=NC)cc3)c2)cc1 | > 200 | > 200 | – |
| O=C(C(=O)n1ccc2ccccc21)n1ccc2ccccc21 | > 200 | 178 | – |
| COc1cc2c(cc1OC)C1C[C@]3(CCN1CC2)C(=O)N(c1ccccc1)C(=O)N3C(C)=O (stereo partly drawn) | > 10 | > 10 | – |
| CC(C)C(=O)N[C@@H](C)C(=O)N(Cc1ccc2ccccc2c1)N=O | – | – | inactive |
| CC(=O)c1c(O)cc2c(c1O)C1CC(C)(CCC1=C(C)C)O2 (stereo not drawn) | > 186 | 26.3 | – |
| c1cc(CCSSCCc2ccncc2)ccn1 | > 200 | 3.8 | – |
| O=C1N(c2ccccc2)N=C(c2ccccc2)C12CC2 | > 200 | 107 | – |
| C[C@]12Cc3cn[nH]c3C(=O)C1CC[C@@H]1C2CC[C@@]2(C)C1CC[C@]2(C)O (stereo partly drawn) | > 38 | > 38 | – |
| Cc1cc(C)nc(NS(=O)(=O)c2ccc(NC(=O)c3cccc4c(Nc5ccc(S(=O)(=O)N=C(N)N)cc5)c5ccc(Cl)cc5nc34)cc2)n1 | > 49 | > 49 | – |

Source: PubChem BioAssay AID179 (DTP/NCI, 2004)
